Where “and” joins values, the source holds several entries; their conditions need not be identical. Equal values may be shown once.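 How tested: cells in 96-well plates exposed to compound for 48 hours at five concentrations. GI50 marks 50% less growth. TGI is the concentration that stops growth completely.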
Assays:
Assay in all cases: NCI anticancer screen, dose series, 48 h
786-0 renal = system: 786-0 renal
A498 renal = system: A498 renal
CCRF-CEM leukemia = system: CCRF-CEM leukemia
HCC-2998 colon = system: HCC-2998 colon
M14 melanoma = system: M14 melanoma
NCI-H226 lung = system: NCI-H226 lung
OVCAR-8 ovarian = system: OVCAR-8 ovarian
RXF 393 renal = system: RXF 393 renal
SN12C renal = system: SN12C renal
U251 CNS = system: U251 CNS

| SMILES | GI50 (786-0 renal) | TGI (786-0 renal) | GI50 (A498 renal) | TGI (A498 renal) | GI50 (CCRF-CEM leukemia) | TGI (CCRF-CEM leukemia) | GI50 (HCC-2998 colon) | TGI (HCC-2998 colon) | GI50 (M14 melanoma) | TGI (M14 melanoma) | GI50 (NCI-H226 lung) | TGI (NCI-H226 lung) | GI50 (OVCAR-8 ovarian) | TGI (OVCAR-8 ovarian) | GI50 (RXF 393 renal) | TGI (RXF 393 renal) | GI50 (SN12C renal) | TGI (SN12C renal) | GI50 (U251 CNS) | TGI (U251 CNS) |
| --- | --- | --- | --- | --- | --- | --- | --- | --- | --- | --- | --- | --- | --- | --- | --- | --- | --- | --- | --- | --- |
| CC[C@H](C)[C@H](NC(=O)c1ncccn1)C(=O)N(C)[C@H](C[C@@H](OC(C)=O)c1nc(C(=O)N[C@@H](Cc2ccccc2)C[C@H](C)C(=O)OC)cs1)C(C)C | 1.72 µM | > 25 µM | 2.7 µM | 17.6 µM | 0.853 µM | 7.19 µM | 6.48 µM | > 25 µM | 1130 nM | > 25 µM | 5.45 µM | > 25 µM | 2.25 µM | > 25 µM | 809 nM | 20.6 µM | 2.81 µM | > 25 µM | 2.39 µM | > 25 µM |
| CC1(C)CC[C@]2(C(=O)NCCNCCN)CC[C@]3(C)C(=CC[C@@H]4[C@@]5(C)CCC(=O)C(C)(C)[C@@H]5CC[C@]43C)[C@@H]2C1 | 1.71 µM | 3.09 µM | 8.01 µM | 23.6 µM | 2.51 µM | 8.64 µM | 1.73 µM | 3.18 µM | 1870 nM | 3.5 µM | 11 µM | 36.1 µM | 2.15 µM | 4.9 µM | 1570 nM | 2.93 µM | 1.68 µM | 3.13 µM | 1.79 µM | 3.46 µM |
| COc1ccc2c(c1)c1ccc3c(c1n2C)C(=O)C=CC3=O |  | 14.7 µM |  | 53.5 µM |  | 2.47 µM |  | 34.6 µM |  | 24.3 µM |  | 32.8 µM |  | 26.6 µM |  | 10.4 µM |  | 15.6 µM |  | 36 µM |
| O=c1cc(-c2ccccc2)oc2c(O)c(O)ccc12 | 5.99 µM | 75.1 µM | 21.5 µM | > 100 µM | 3.45 µM | > 100 µM | 23.8 µM | > 100 µM | 9550 nM | 41.4 µM | 21 µM | > 100 µM | 5.65 µM | > 100 µM | 9950 nM | 52.7 µM | 12.2 µM | > 100 µM | 7.72 µM | > 100 µM |
| Cn1cnc(SC2=CC(=O)C=C3S[C@H]4C[C@@]23c2c(c(O)c3c5c2=NCCC=5C=N3)N4)c1CC(N)C(=O)O (stereo not given in full) | 13.6 µM | 26.8 µM | 18.1 µM | 32.7 µM | 3.76 µM | 44.1 µM | 13.6 µM | 26.6 µM | 15100 nM | 28.6 µM | 15.8 µM | 33.8 µM | 3.81 µM | 14.5 µM | 10600 nM | 23.8 µM | 7.26 µM | 19.1 µM | 18.1 µM | 32 µM |
| C=C[C@@H]1CCC/C=C/[C@@H]2C[C@H](O)C[C@H]2[C@H](O)/C=C/C(=O)O1 | 0.257 µM | 0.606 µM | 0.261 µM | 0.763 µM | 2.42 µM | > 100 µM | 0.409 µM | 2.92 µM | 387 nM | > 28.9 µM | 0.265 µM | 0.784 µM | 0.44 µM | > 100 µM | 247 nM | 0.68 µM | 1.53 µM | > 100 µM | 0.941 µM | > 100 µM |
| COc1cccc(C2SC(C)C(=O)N2NC(=O)C(O)c2ccccc2)c1 (stereo not given) | > 100 µM | > 100 µM | > 100 µM | > 100 µM | > 100 µM | > 100 µM | > 100 µM | > 100 µM | > 100000 nM | > 100 µM | > 100 µM | > 100 µM | > 100 µM | > 100 µM | > 100000 nM | > 100 µM | > 100 µM | > 100 µM | > 100 µM | > 100 µM |
| CC1CCCc2c1n[nH]c2CC1CC(=O)NC(=O)C1 (stereo not given) |  | > 100 µM |  | > 100 µM |  | > 100 µM |  | > 100 µM |  | > 100 µM |  | > 100 µM |  | > 100 µM |  | > 100 µM |  | > 100 µM |  | > 100 µM |
| O=C(O)c1nn(-c2ccc(Cl)cc2)c2c1C(=O)c1ccccc1C2=O |  | > 100 µM |  | > 100 µM |  | > 100 µM |  | > 100 µM |  | 63.9 µM |  | > 100 µM |  | > 100 µM |  | > 100 µM |  | > 100 µM |  | > 100 µM |
| COc1ccc(/C=C/c2cc(OC)c(OC)c(OC)c2)cc1OC |  | > 100 µM |  | > 100 µM |  | > 100 µM |  | > 100 µM |  | > 100 µM |  | > 100 µM |  | > 100 µM |  | > 100 µM |  | > 100 µM |  | > 100 µM |
| COc1nc(NC2OC(COC(C)=O)C(OC(C)=O)C(OC(C)=O)C2OC(C)=O)c(N=C(C)C(C)=O)c(=O)n1C (stereo not given) |  | > 100 µM |  | > 100 µM |  | > 100 µM |  | > 100 µM |  | > 100 µM |  | > 100 µM |  | > 100 µM |  | > 100 µM |  | > 100 µM |  | > 100 µM |
| COc1cc(/C=C2\C[C@H]3[C@@H]4CC=C5C[C@@H](O)CC[C@]5(C)[C@H]4CC[C@]3(C)[C@H]2O)ccc1OCCN1CCCCC1 | 0.47 µM | 1.18 µM | 14.3 µM | 31.3 µM | 0.37 µM | 1.88 µM | 0.85 µM | 1.64 µM | 424 nM | 0.954 µM | 2.53 µM | 5.62 µM | 1.57 µM | > 12.1 µM | 1040 nM | 2.31 µM | 0.813 µM | 1.75 µM | 1.13 µM | 3.32 µM |
| CCOC(=O)NC(=O)c1cn(C2CCCCC2)c(=O)n(C)c1=O |  | > 100 µM |  | > 100 µM |  | > 100 µM |  | > 100 µM |  | > 100 µM |  | > 100 µM |  | > 100 µM |  | > 100 µM |  | > 100 µM |  | > 100 µM |
| C=CCN=C1NC(=O)C(CC(=O)Nc2cccc(Cl)c2)S1 (stereo not given) |  | > 100 µM |  | > 100 µM |  | > 100 µM |  | > 100 µM |  | > 100 µM |  | > 100 µM |  | > 100 µM |  | > 100 µM |  | > 100 µM |  | > 100 µM |
| C=C(C)[C@@H]1C/C=C(/COC(C)=O)CC[C@H]2O[C@@]2(C)CC/C=C(\C)CC1 | 67.9 µM | > 100 µM | > 100 µM | > 100 µM | 26.9 µM | 54.8 µM | > 100 µM | > 100 µM | > 100000 nM | > 100 µM | > 100 µM | > 100 µM | > 100 µM | > 100 µM | 33600 nM | > 100 µM | > 100 µM | > 100 µM | > 100 µM | > 100 µM |
| Cc1ccccc1SC(/C=C/NNC1=NC(c2ccccc2)C(c2ccccc2)=NN1)c1ccccc1 (stereo not given) |  | 25.9 µM |  | 64.2 µM |  | 94.4 µM |  | > 100 µM |  | 87.6 µM |  | 52 µM |  | 40 µM |  | 31.2 µM |  | > 100 µM |  | 64.7 µM |
| N#Cc1c(N)c(C(=O)c2ccc3c(c2)OCCO3)n2c1CCCC2 | 5.31 µM | > 100 µM | 1.79 µM | 8.03 µM | 3.15 µM | > 100 µM | 4.1 µM | > 93.1 µM | 2080 nM | > 100 µM | > 100 µM | > 100 µM | 4.21 µM | > 100 µM | 2290 nM | 17.9 µM | 6.13 µM | > 100 µM | 4.07 µM | > 100 µM |
| COc1cccc(/C=C2\N=C(Cl)OC2=O)c1O |  | > 100 µM |  | > 100 µM |  | > 100 µM |  | > 100 µM |  | > 100 µM |  | > 100 µM |  | > 100 µM |  | > 100 µM |  | > 100 µM |  | > 100 µM |
| C[C@]1(c2nc3c(C(N)=O)cccc3[nH]2)CCCN1 | > 100 µM | > 100 µM | > 100 µM | > 100 µM | > 100 µM | > 100 µM | > 100 µM | > 100 µM | > 100000 nM | > 100 µM | 50.6 µM and > 74.5 µM | > 100 µM | 69.5 µM and 99.8 µM | > 100 µM | > 90300 nM | > 100 µM | 79.9 µM and > 85.5 µM | > 100 µM | 75.9 µM and > 100 µM | > 100 µM |
| NC(=O)c1ccc(I)c([N+](=O)[O-])c1 | > 100 µM | > 100 µM | > 78.7 µM | > 100 µM | > 63.7 µM | > 100 µM | 50.4 µM | > 100 µM | > 86000 nM | > 100 µM | > 100 µM | > 100 µM | > 100 µM | > 100 µM | > 84800 nM | > 100 µM | > 75.9 µM | > 100 µM | 45.3 µM | > 100 µM |
| CC(C)(C)OC(=O)NC(Cc1ccccc1)C(=S)N1CCCC1 (stereo not given) |  | > 100 µM |  | > 100 µM |  | > 100 µM |  | > 100 µM |  | > 100 µM |  | > 100 µM |  | > 100 µM |  | > 100 µM |  | > 100 µM |  | > 100 µM |
